Assay results published in patent US10201530B2, “Treatment of BRCA1-defective cancer or resistant cancers” (City of Hope, priority 2014, dated 2019).

Columns and labels:
MCF-7 = assay: Cytotoxicity, MCF-7 cells; format: cell-based, human; conditions: Homo sapiens, MCF7; MCF-7, ER+ PR(+)
Description: (§1) All cell lines were acquired from the American Type Culture Collection (Manassas, Va., USA). Cells were maintained in RPMI 1640 medium (Mediatech) with 10% fetal bovine serum, 2 mM glutamine, and 100 U of penicillin and 100 μg of streptomycin per ml of medium (Sigma) at 37° C. in 5% CO2. To isolate HCC1437+BRCA1 cells, parental HCC1937 cells were transfected with pcDNA3.1 plasmid expressing full-length BRCA1 cDNA. Stable transfectant clones were selected and used for drug sensitivity assays. For stable transfection, cells at 30-40% confluence were incubated overnight with […] of plasmid DNA, using FUGENE® 6 transfectin reagent (Roche Molecular Biochemical, Monza, Italy) according to the manufacturer's instructions. Cells were then selected in puromycin (1 μg/ml) (Invitrogen life Technologies, La Jolla, Calif., USA.) After 20 to 30 days, viable puromycin-resistant colonies from HCC1937 transfections were expanded and screened. The clones that stably expressed […] and retained growth potential were assayed for BRCA1 expression by Western blot analysis. By Western blot analysis, we evaluated the restoration of BRCA1 expression in the puromycin-resistant cDNA/transfectant cells.
(§2) The MTT cytotoxicity assay was performed by incubating with MTT and monitoring the MTT formazan formed by viable cells with a microplate reader at a wavelength of 560 nm; the survival, ratio was determined using the formula: (Atest−Ablank)/(Acontrol−Ablank)×100%. The cytotoxicity was determined in 96-well plates using the semiautomatic fluorescence-based Digital Imaging Microscopy System (DIMSCAN). DIMSCAN uses digital imaging microscopy to quantify viable cells, which selectively accumulate FDA (fluorescein diacetate; Alfa Aesar, Ward Hill, Mass.). DIMSCAN is capable of measuring cytotoxicity over a 4 log dynamic range by quantifying total fluorescence per well (which is proportional to the number of viable cells) after elimination of the background fluorescence by digital thresholding and eosin Y (Mallinckrodt Baker, Center Valley, Pa.) quenching. […]

[1] = system: multiple human cancer cell lines; conditions: in most cases; cited from earlier work
MDA-MB-231 = assay: Cytotoxicity, MDA-MB-231 cells; format: cell-based, human; conditions: Homo sapiens; MDA-MB-231, TNBC; read-out: IC50, mean ± SEM
Description: as §1
(§3) The MTT cytotoxicity assay was performed by incubating with MTT and monitoring the MTT formazan formed by viable cells with a microplate reader at a wavelength of 560 nm; the survival, ratio was determined using the formula: (Atest−Ablank)/(Acontrol−Ablank)×100%. The cytotoxicity was determined in 96-well plates using the semiautomatic fluorescence-based Digital Imaging Microscopy System (DIMSCAN). DIMSCAN uses digital imaging microscopy to quantify viable cells, which selectively accumulate FDA (fluorescein diacetate; Alfa Aesar, Ward Hill, Mass.). DIMSCAN is capable of measuring cytotoxicity over a 4 log dynamic range by quantifying total fluorescence per well (which is proportional to the number of viable cells) after elimination of the background fluorescence by digital thresholding and eosin Y (Mallinckrodt Baker, Center Valley, Pa.) quenching. Cells were seeded into 96-well plates in 100 μL of complete medium at 2,000 to 5,000 cells per well depending on cell line growth rate. After overnight incubation, test compound was added to each well at various concentrations in 50 μL of culture medium. After incubation with the drugs for 96 hours at 37° C., FDA (final concentration: 10 mg/mL) and eosin Y [final concentration: 0.1% (w/v)] were added to each well and the cells were incubated for an additional 20 minutes at 37° C. Total fluorescence per well was then measured using DIMSCAN, and the results were expressed as the ratio of the fluorescence in treated wells to the fluorescence in untreated wells (survival fraction).

TOV112D = assay: Cytotoxicity, TOV112D cells; format: cell-based, human; conditions: Homo sapiens, read-out: IC50, mean ± SEM
Description: as §1, §3

PARP1 protein = PARP1 protein level by Western blot; format: cell-based, human
Description: For subcellular fractionation, cells were trypsinized and washed with cold PBS solution twice. […] Following centrifugation at 1,000 g for 5 min, the supernatant was collected (i.e., cytoplasmic fraction) and pellets were washed with the same buffer twice. The washed samples were extracted for 40 min on ice with fractionation buffer containing 0.5% NP-40 for nuclear fraction. All the samples were sonicated and clarified by centrifugation at 16,000 g for 15 min. Protein concentrations of all fractions were determined with Bio-Rad Protein Assay (Bio-Rad Laboratories, Hercules, Calif.). Immunoblotting was performed as described previously (21,22). Briefly, equal amounts of boiled protein samples were subjected to SDS-polyacrylamide gel electrophoresis (PAGE) and transferred onto nitrocellulose membranes (Bio-Rad Laboratories). Membranes were blocked for 1 hour in 3% BSA in Tris buffered saline containing 0.05% Tween 20 (TBST) and incubated for 1 hour with primary antibody (1:500 or 1:1000) diluted in TBST containing 1% BSA. After two washes with TBST, membranes were incubated for 1 hour with horseradish peroxidase-conjugated secondary Abs (1:3000 dilution) at room temperature. The immunoblots were visualized on film with the West-Q chemi-luminescence kit (GenDEPOT, Barker, Tex.).

OVCAR-4 = assay: Cytotoxicity, OVCAR-4 cells; format: cell-based, human; conditions: Homo sapiens, read-out: IC50, mean ± SEM
Description: as §1, §3

OV90 = assay: Cytotoxicity (MTT/DIMSCAN), OV90 cells; format: cell-based, human; conditions: Homo sapiens, OV-90; OV90, wild-type BRCA1 ovarian cancer cells; COH29 72 h; read-out: IC50, mean ± SEM
Description: as §1
as §3, with “After incubation with the drugs for 96 hours at 37° C., FDA (final concentration: 10 mg/mL) and eosin Y [final concentration: 0.1% (w/v)] were added to each well and the cells were incubated for an additional 20 minutes at 37° C.” left out

A2780 = assay: Cytotoxicity, A2780 cells; format: cell-based, human; conditions: Homo sapiens; A2780, cisplatin-sensitive ovarian cells; read-out: IC50, mean ± SEM
Description: as §1, §3

SKBR3 = assay: Cytotoxicity, SKBR3 cells; format: cell-based, human; conditions: Homo sapiens, SK-BR-3; SKBR3, ER− PR(−) HER2+
Description: as §1, §2

For `O=C(Nc1nc(-c2ccc(O)c(O)c2)c(-c2ccccc2)s1)c1ccc(O)c(O)c1` [COH29], the IC50 (MCF-7) is listed as 17.6 ± 1.54 µM, the IC50 [1] is listed as < 10 µM and the IC50 (MDA-MB-231) is listed as 9.7 ± 1.52 µM. The IC50 (TOV112D) was 16 ± 2.08 µM, the “effect on PARP1 protein level” value (PARP1 protein; HCC1937 BRCA1-defective cells, 24 h) was “attenuated PARP1 protein” and the “effect on PARP1 protein level” value (PARP1 protein; HCC1937 cells irrespective of BRCA1 status, 4 h treatment) was “Little reduction”. For the same compound, the IC50 (OVCAR-4) was 11.2 ± 1.51 µM, the IC50 (OV90) was 31.6 ± 3.35 µM and the IC50 (A2780) was 4.67 ± 1.64 µM. The IC50 (SKBR3) was 13.28 ± 0.03 µM.
